Reference: ChEMBL document CHEMBL2163346, “Acetylcholinesterase inhibitors from the leaves of Macaranga kurzii” (J Nat Prod, 2012)
Calls of active or inactive are those of the source. The calls are words filed in the database; no cut-off is given here.

Key:
KB [1] = assay: Cytotoxicity against human KB cells at 20 uM after 72 hrs by neutral red staining; assay type: functional, cell-based
Acetylcholinesterase = Acetylcholinesterase (Electrophorus electricus, UniProt O42275)
Description: Inhibition of Electrophorus electricus C2888 AChE using acetylthiocholine iodide as substrate by Ellman's spectroscopic method

KB [2] = assay: Cytotoxicity against human KB cells after 72 hrs by neutral red staining; assay type: functional, cell-based
[3] = molecular target: Acetylcholinesterase (Electrophorus electricus) (UniProt O42275); conditions: C2888, 50 uM
Acetylcholinesterase (Electrophorus electricus), sequence (O42275 24-633 limits assumed): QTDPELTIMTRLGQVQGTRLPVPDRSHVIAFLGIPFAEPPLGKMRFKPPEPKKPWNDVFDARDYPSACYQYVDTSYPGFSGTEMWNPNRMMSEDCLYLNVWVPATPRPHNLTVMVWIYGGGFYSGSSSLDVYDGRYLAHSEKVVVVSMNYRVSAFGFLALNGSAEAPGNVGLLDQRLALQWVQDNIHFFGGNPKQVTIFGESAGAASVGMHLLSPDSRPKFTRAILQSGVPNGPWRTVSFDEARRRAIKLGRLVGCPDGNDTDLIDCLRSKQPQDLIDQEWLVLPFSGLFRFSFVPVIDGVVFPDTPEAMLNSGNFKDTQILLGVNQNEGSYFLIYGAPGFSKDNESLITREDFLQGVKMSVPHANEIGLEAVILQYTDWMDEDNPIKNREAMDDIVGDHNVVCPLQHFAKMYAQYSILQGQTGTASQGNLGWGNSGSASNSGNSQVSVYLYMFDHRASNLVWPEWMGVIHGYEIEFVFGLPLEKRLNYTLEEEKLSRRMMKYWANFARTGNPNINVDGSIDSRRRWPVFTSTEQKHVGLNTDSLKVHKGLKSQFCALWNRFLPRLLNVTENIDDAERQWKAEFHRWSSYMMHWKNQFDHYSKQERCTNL
Description: Inhibition of Electrophorus electricus C2888 AChE using acetylthiocholine iodide as substrate at 50 uM by Ellman's spectroscopic method

Acetylcholinesterase, sequence (O42275 whole entry): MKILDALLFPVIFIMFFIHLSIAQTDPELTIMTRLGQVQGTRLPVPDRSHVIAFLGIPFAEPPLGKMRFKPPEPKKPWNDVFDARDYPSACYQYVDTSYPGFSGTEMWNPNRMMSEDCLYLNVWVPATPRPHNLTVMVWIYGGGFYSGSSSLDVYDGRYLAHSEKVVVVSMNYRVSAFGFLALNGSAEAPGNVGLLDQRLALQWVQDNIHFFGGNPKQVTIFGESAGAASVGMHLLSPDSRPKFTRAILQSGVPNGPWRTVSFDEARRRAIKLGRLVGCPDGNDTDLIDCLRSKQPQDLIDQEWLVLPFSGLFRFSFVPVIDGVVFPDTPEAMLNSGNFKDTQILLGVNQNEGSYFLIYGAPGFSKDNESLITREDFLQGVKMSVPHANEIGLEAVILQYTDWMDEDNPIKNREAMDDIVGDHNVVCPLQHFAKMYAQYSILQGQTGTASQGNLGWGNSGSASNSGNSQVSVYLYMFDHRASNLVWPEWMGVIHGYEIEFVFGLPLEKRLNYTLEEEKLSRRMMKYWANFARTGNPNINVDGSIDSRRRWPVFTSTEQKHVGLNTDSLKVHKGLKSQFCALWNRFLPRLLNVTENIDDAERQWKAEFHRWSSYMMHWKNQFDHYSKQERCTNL

Row | SMILES | Activity (KB [1]) | IC50 (Acetylcholinesterase) [µM] | IC50 (KB [2]) [µM] | inhibition [3]
1 | C=C(C)C(O)Cc1c(O)cc2oc(-c3ccccc3)c(O)c(=O)c2c1O (racemic) | inactive |  |  | 
2 | O=c1c(O)c(-c2ccccc2)oc2cc(O)cc(O)c12 | inactive |  |  | 
3 | CC(C)=CCc1c(O)cc2c(c1O)C(=O)C[C@@H](c1ccccc1)O2 | inactive | 18 |  | 
4 | COc1cc(/C=C\c2ccccc2)cc(OC)c1 | inactive |  |  | 
5 | CC1(C)Oc2cc3oc(-c4ccccc4)c(O)c(=O)c3c(O)c2CC1O (racemic) |  |  | 13 | 
6 | CC1(C)C=Cc2c(cc3oc(-c4ccccc4)c(O)c(=O)c3c2O)O1 [MACAKURZIN C] | inactive | 20 |  | inactive
7 | CC(C)=CCc1c(O)cc(O)c2c1O[C@H](c1ccccc1)CC2=O [GLABRANIN] | inactive | 23 |  | 
8 | COc1cc(/C=C/c2ccccc2)cc(OC)c1 [3,5-O-DIMETHYLPINOSYLVIN] | inactive | 9 |  | 
9 | CC(C)=CCc1c(O)cc2oc(-c3ccccc3)c(O)c(=O)c2c1O |  |  | 10 | 
10 | COc1cc(O)c2c(=O)c(O)c(-c3ccccc3)oc2c1 | inactive |  |  | 
11 | CC(C)=CCc1c(O)cc(O)c2c(=O)c(O)c(-c3ccccc3)oc12 | inactive |  |  | 
12 | COc1cc(/C=C/c2ccccc2)c(CC=C(C)C)c(OC)c1 |  | 19 | 4 | 
13 | Oc1cc(/C=C/c2ccccc2)c2ccoc2c1 [FURANOKURZIN] | inactive | 42 |  | 
